Read-outs that look alike come from different tables or passages of the source.
How the values were obtained:
Assay in all cases: Kinase panel
Assay type in all cases: biochemical
ABL1 = ABL1 (Homo sapiens, UniProt P00519); conditions: ABL1, 1 µM; read-out: residual enzyme activity
Summary of the method: (§1)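 Compounds were applied once, at 1 µM, to each kinase of a broad biochemical panel, and remaining enzyme activity was calculated. A kinase counted as inhibited if that remaining activity fell to 40% or below.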

ACK1 = target: T1, ACK1 (Homo sapiens, UniProt Q07912); conditions: ACK1, 1 µM; read-out: residual enzyme activity
T1 construct: purchased Reaction Biology (RBC)
Summary of the method: as §1

CDK4/CYCLIN D3 = CDK4/CYCLIN D3 (Homo sapiens, UniProt P11802); conditions: CDK4/cyclin D3, 1 µM; read-out: residual enzyme activity
Summary of the method: as §1

EPHA4 = EPHA4 (Homo sapiens, UniProt P54764); conditions: EPHA4, 1 µM; read-out: residual enzyme activity
Summary of the method: as §1

ERK7/MAPK15 = ERK7/MAPK15 (Homo sapiens, UniProt Q8TD08); conditions: ERK7/MAPK15, 1 µM; read-out: residual enzyme activity
Summary of the method: as §1

FGR = FGR (Homo sapiens, UniProt P09769); conditions: read-out: residual enzyme activity
FGR, sequence (P09769 whole entry, species assumed): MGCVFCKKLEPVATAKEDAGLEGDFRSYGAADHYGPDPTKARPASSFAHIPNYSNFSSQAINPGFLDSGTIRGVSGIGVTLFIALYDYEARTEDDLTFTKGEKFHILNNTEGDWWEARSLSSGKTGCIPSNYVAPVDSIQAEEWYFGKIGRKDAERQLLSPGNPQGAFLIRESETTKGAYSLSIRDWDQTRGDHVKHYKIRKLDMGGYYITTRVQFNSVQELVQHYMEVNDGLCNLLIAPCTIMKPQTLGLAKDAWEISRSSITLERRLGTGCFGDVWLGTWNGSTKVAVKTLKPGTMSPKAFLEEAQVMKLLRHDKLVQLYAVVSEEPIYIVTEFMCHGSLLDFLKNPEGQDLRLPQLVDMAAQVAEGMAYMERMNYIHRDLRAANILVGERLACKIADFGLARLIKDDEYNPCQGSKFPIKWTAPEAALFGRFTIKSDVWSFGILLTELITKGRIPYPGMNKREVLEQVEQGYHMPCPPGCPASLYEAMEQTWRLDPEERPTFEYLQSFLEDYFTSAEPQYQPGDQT
Summary of the method: as §1

GRK7 = GRK7 (Homo sapiens, UniProt Q8WTQ7); conditions: GRK7, 1 µM; read-out: residual enzyme activity
GRK7, sequence (Q8WTQ7 whole entry, species assumed): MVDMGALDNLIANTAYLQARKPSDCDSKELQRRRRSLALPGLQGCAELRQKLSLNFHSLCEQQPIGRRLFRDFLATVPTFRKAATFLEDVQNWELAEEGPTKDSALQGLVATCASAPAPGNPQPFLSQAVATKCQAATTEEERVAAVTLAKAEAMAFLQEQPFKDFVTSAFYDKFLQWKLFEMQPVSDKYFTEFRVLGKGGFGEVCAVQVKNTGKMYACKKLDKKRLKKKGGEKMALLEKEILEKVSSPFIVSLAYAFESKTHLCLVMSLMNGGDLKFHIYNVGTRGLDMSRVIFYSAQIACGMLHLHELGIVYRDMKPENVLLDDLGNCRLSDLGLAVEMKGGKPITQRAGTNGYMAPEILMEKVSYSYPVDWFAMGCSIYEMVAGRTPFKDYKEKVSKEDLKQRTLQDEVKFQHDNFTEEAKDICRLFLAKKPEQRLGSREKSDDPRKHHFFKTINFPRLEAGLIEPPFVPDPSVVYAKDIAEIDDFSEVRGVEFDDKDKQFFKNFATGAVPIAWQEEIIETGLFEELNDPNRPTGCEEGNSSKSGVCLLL
Summary of the method: as §1

LIMK2 = LIMK2 (Homo sapiens, UniProt P53671); conditions: LIMK2, 1 µM; read-out: residual enzyme activity
Summary of the method: as §1

LOK/STK10 = LOK/STK10 (Homo sapiens, UniProt O94804); conditions: LOK/STK10, 1 µM; read-out: residual enzyme activity
Summary of the method: as §1

LYN = LYN (Homo sapiens, UniProt P07948); conditions: read-out: residual enzyme activity
Summary of the method: as §1

MARK2/PAR-IBA = MARK2/PAR-IBA (Homo sapiens, UniProt Q7KZI7); conditions: read-out: residual enzyme activity
Summary of the method: as §1

MEK3 = MEK3 (Homo sapiens, UniProt P46734); conditions: MEK3, 1 µM; read-out: residual enzyme activity
Summary of the method: as §1

MEKK1 = MEKK1 (Homo sapiens, UniProt Q13233); conditions: MEKK1, 1 µM; read-out: residual enzyme activity
Summary of the method: as §1

MELK = MELK (Homo sapiens, UniProt Q14680); conditions: read-out: residual enzyme activity
Summary of the method: as §1

MKK6 = MKK6 (Homo sapiens, UniProt P52564); conditions: MKK6, 1 µM; read-out: residual enzyme activity
Summary of the method: as §1

MSSK1/STK23 = MSSK1/STK23 (Homo sapiens, UniProt Q9UPE1); conditions: MSSK1/STK23, 1 µM; read-out: residual enzyme activity
MSSK1/STK23, sequence (Q9UPE1 whole entry): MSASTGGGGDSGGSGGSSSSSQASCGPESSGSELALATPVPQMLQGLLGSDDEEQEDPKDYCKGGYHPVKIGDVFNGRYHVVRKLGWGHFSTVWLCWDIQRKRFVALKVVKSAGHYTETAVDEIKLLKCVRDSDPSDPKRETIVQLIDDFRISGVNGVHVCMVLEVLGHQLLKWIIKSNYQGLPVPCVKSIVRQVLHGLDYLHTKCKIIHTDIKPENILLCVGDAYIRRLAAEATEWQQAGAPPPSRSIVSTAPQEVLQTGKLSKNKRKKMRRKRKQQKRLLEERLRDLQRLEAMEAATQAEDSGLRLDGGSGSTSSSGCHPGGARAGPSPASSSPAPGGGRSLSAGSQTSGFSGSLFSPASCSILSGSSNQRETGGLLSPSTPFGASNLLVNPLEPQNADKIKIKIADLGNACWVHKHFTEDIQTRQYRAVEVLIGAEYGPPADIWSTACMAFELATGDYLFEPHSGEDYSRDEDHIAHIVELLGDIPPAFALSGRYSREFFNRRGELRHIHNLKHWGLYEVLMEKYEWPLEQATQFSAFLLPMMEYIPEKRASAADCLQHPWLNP
Summary of the method: as §1

NEK4 = NEK4 (Homo sapiens, UniProt P51957); conditions: NEK4, 1 µM; read-out: residual enzyme activity
Summary of the method: as §1

PAK4 = PAK4 (Homo sapiens, UniProt O96013); conditions: PAK4, 1 µM; read-out: residual enzyme activity
Summary of the method: as §1

PDK1/PDPK1 = PDK1/PDPK1 (Homo sapiens, UniProt O15530); conditions: PDK1/PDPK1, 1 µM; read-out: residual enzyme activity
Summary of the method: as §1

PKCNU/PRKD3 = PKCNU/PRKD3 (Homo sapiens, UniProt O94806); conditions: PKCnu/PRKD3, 1 µM; read-out: residual enzyme activity
Summary of the method: as §1

RSK4 = RSK4 (Homo sapiens, UniProt Q9UK32); conditions: RSK4, 1 µM; read-out: residual enzyme activity
Summary of the method: as §1

SGK1 = SGK1 (Homo sapiens, UniProt O00141); conditions: SGK1, 1 µM; read-out: residual enzyme activity
Summary of the method: as §1

SGK2 = SGK2 (Homo sapiens, UniProt Q9HBY8); conditions: SGK2, 1 µM; read-out: residual enzyme activity
SGK2, sequence (Q9HBY8 whole entry, species assumed): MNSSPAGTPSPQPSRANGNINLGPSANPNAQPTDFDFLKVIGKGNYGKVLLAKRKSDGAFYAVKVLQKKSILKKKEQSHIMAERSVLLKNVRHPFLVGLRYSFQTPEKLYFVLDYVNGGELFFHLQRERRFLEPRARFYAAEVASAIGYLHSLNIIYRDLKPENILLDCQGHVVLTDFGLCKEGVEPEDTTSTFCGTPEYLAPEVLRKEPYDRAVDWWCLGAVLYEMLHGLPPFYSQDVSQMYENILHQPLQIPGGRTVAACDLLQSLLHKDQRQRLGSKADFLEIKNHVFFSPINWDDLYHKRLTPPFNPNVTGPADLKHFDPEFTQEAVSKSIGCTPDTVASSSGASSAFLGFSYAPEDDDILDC
Summary of the method: as §1

STK21/CIT = STK21/CIT (Homo sapiens, UniProt O14578); conditions: read-out: residual enzyme activity
Summary of the method: as §1

STK33 = STK33 (Homo sapiens, UniProt Q9BYT3); conditions: STK33, 1 µM; read-out: residual enzyme activity
Summary of the method: as §1

TAK1 = TAK1 (Homo sapiens, UniProt O43318); conditions: TAK1, 1 µM; read-out: residual enzyme activity
Summary of the method: as §1

TESK2 = TESK2 (Homo sapiens, UniProt Q96S53); conditions: TESK2, 1 µM; read-out: residual enzyme activity
Summary of the method: as §1

TGFBR2 = TGFBR2 (Homo sapiens, UniProt P37173); conditions: TGFBR2, 1 µM; read-out: residual enzyme activity
Summary of the method: as §1

TIE2/TEK = TIE2/TEK (Homo sapiens, UniProt Q02763); conditions: read-out: residual enzyme activity
Summary of the method: as §1

TRKA = TRKA (Homo sapiens, UniProt P04629); conditions: read-out: residual enzyme activity
TRKA, sequence (P04629 33-796, species assumed): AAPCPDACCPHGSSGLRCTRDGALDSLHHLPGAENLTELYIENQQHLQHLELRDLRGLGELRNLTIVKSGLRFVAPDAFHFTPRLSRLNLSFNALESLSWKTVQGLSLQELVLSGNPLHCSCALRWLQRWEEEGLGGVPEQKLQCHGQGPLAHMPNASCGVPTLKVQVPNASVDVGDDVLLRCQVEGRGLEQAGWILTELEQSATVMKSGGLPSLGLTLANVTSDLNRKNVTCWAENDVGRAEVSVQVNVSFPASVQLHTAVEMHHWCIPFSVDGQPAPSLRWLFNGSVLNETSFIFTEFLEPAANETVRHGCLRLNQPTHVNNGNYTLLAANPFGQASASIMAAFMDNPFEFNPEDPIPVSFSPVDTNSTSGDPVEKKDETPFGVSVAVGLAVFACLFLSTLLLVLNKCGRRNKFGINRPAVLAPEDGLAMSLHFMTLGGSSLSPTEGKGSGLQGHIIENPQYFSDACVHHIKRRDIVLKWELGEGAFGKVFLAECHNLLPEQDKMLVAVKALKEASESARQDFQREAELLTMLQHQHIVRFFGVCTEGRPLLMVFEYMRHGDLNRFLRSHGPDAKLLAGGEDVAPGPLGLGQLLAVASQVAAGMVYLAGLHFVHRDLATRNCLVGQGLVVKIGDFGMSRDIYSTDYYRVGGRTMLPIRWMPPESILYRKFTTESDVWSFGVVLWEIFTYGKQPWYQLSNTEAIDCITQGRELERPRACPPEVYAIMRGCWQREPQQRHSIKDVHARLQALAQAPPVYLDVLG
Summary of the method: as §1

TXK = TXK (Homo sapiens, UniProt P42681); conditions: read-out: residual enzyme activity
Summary of the method: as §1

WNK2 = WNK2 (Homo sapiens, UniProt Q9Y3S1); conditions: WNK2, 1 µM; read-out: residual enzyme activity
WNK2, sequence (Q9Y3S1 whole entry, species assumed): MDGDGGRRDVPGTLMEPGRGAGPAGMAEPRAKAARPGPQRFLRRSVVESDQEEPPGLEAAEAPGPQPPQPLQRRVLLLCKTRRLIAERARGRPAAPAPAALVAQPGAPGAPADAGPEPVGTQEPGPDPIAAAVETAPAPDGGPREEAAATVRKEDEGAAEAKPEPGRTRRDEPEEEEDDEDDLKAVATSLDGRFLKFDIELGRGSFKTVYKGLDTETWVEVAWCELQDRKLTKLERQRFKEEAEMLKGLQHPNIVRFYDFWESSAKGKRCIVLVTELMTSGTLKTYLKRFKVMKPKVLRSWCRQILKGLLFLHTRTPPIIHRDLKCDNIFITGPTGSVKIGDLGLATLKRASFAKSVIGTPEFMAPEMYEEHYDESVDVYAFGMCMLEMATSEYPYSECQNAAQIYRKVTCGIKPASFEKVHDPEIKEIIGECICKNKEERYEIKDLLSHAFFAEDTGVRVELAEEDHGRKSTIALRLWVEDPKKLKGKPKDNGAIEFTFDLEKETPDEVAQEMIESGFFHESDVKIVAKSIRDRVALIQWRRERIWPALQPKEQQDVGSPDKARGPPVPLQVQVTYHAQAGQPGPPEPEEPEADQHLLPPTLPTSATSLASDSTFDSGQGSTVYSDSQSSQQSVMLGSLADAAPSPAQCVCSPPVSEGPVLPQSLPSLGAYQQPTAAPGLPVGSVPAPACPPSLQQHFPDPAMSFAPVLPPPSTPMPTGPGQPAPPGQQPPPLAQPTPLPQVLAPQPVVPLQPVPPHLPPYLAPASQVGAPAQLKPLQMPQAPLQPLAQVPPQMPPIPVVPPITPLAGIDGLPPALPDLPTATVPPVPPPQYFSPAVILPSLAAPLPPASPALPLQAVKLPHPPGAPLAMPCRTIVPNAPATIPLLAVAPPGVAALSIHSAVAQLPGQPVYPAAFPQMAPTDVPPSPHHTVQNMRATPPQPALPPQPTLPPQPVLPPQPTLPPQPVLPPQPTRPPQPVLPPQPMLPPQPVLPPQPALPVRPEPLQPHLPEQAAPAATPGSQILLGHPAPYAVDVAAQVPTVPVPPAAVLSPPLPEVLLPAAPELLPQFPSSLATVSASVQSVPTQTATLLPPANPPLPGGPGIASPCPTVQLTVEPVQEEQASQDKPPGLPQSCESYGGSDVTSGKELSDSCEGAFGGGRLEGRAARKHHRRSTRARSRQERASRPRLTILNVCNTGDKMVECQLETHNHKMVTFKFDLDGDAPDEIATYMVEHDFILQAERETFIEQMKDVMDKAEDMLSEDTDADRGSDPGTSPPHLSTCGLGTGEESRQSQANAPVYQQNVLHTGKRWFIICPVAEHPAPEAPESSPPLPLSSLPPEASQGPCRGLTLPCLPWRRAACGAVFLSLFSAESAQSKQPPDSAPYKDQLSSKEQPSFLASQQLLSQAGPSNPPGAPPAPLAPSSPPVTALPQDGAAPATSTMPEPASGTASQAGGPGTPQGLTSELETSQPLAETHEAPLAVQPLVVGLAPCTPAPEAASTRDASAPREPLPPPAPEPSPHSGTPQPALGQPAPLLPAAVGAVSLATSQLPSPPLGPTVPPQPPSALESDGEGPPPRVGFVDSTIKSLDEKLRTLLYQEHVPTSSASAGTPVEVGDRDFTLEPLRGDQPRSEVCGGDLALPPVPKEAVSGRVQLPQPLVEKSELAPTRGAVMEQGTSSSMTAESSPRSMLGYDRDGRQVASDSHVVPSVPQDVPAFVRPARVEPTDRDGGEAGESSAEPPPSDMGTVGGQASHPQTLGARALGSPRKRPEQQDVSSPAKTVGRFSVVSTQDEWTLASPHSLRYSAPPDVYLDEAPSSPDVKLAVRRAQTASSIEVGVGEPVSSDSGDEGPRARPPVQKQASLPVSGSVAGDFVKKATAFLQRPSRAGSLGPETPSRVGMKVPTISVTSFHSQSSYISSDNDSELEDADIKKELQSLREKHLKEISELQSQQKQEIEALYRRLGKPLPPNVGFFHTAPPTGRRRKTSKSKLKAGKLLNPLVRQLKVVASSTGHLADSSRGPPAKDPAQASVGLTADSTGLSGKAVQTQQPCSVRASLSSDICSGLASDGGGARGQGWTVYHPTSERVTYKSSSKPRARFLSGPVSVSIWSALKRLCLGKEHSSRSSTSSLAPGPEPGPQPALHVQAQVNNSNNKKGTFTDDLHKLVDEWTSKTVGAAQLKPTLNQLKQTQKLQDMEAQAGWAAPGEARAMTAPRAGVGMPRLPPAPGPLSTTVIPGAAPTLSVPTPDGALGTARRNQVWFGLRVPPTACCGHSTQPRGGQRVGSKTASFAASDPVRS
Summary of the method: as §1

WNK3 = WNK3 (Homo sapiens, UniProt Q9BYP7); conditions: WNK3, 1 µM; read-out: residual enzyme activity
Summary of the method: as §1

| Structure (SMILES) | remaining activity at 1 µM (ABL1) | remaining activity at 1 µM (ACK1) | remaining activity at 1 µM (CDK4/CYCLIN D3) | remaining activity at 1 µM (EPHA4) | remaining activity at 1 µM (ERK7/MAPK15) | remaining activity at 1 µM (FGR) | remaining activity at 1 µM (GRK7) | remaining activity at 1 µM (LIMK2) | remaining activity at 1 µM (LOK/STK10) | remaining activity at 1 µM (LYN) | remaining activity at 1 µM (MEK3) | remaining activity at 1 µM (MEKK1) | remaining activity at 1 µM (MELK) | remaining activity at 1 µM (MKK6) | remaining activity at 1 µM (MSSK1/STK23) | remaining activity at 1 µM (NEK4) | remaining activity at 1 µM (PAK4) | remaining activity at 1 µM (PDK1/PDPK1) | remaining activity at 1 µM (PKCNU/PRKD3) | remaining activity at 1 µM (RSK4) | also measured |
| --- | --- | --- | --- | --- | --- | --- | --- | --- | --- | --- | --- | --- | --- | --- | --- | --- | --- | --- | --- | --- | --- |
| Cc1ccc(Nc2ncc3c(n2)C2(CC2)C(=O)N(c2cc(NC(=O)c4cccc(C(F)(F)F)c4)ccc2C)C3)cn1 [Compound 51, N-(4-methyl-3-(2'-((6-methylpyridin-3-yl)amino)-7'-oxo-5'H-spiro[cyclopropane-1,8'-pyrido[4,3-d]pyrimidine]-6'(7'H)-yl)phenyl)-3-(trifluoromethyl)benzamide] | ≤ 40% | ≤ 40% | > 40% | ≤ 40% | > 40% | ≤ 40% | > 40% | ≤ 40% | ≤ 40% | ≤ 40% | > 40% | > 40% | > 40% | > 40% | > 40% | ≤ 40% | > 40% | > 40% | > 40% | > 40% | remaining activity at 1 µM (MARK2/PAR-IBA; MARK2/PAR-IBa): > 40%; remaining activity at 1 µM (SGK1): > 40%; remaining activity at 1 µM (SGK2): > 40%; remaining activity at 1 µM (STK21/CIT): > 40%; remaining activity at 1 µM (STK33): > 40%; remaining activity at 1 µM (TAK1): ≤ 40%; remaining activity at 1 µM (TESK2): ≤ 40%; remaining activity at 1 µM (TGFBR2): > 40%; remaining activity at 1 µM (TIE2/TEK): ≤ 40%; remaining activity at 1 µM (TRKA): ≤ 40%; remaining activity at 1 µM (TXK): ≤ 40%; remaining activity at 1 µM (WNK2): > 40%; remaining activity at 1 µM (WNK3): > 40% |
| Cc1cn(-c2cc(C(=O)Nc3ccc(C)c(N4Cc5cnc(NC6CC6)nc5C5(CC5)C4=O)c3)cc(C(F)(F)F)c2)cn1 [Compound 8, N-(3-(2'-(cyclopropylamino)-7'-oxo-5'H-spiro[cyclopropane-1,8'-pyrido[4,3-d]pyrimidine]-6'(7'H)-yl)-4-methylphenyl)-3-(4-methyl-1H-imidazol-1-yl)-5-(trifluoromethyl)benzamide] | ≤ 40% | ≤ 40% | > 40% | ≤ 40% | > 40% | ≤ 40% | > 40% | ≤ 40% | ≤ 40% | ≤ 40% | > 40% | > 40% | > 40% | > 40% | > 40% | ≤ 40% | > 40% | > 40% | > 40% | > 40% | remaining activity at 1 µM (MARK2/PAR-IBA; MARK2/PAR-IBA): > 40%; remaining activity at 1 µM (SGK1): > 40%; remaining activity at 1 µM (SGK2): > 40%; remaining activity at 1 µM (STK21/CIT): > 40%; remaining activity at 1 µM (STK33): > 40%; remaining activity at 1 µM (TAK1): ≤ 40%; remaining activity at 1 µM (TESK2): ≤ 40%; remaining activity at 1 µM (TGFBR2): > 40%; remaining activity at 1 µM (TIE2/TEK): ≤ 40%; remaining activity at 1 µM (TRKA): ≤ 40%; remaining activity at 1 µM (TXK): ≤ 40%; remaining activity at 1 µM (WNK2): > 40%; remaining activity at 1 µM (WNK3): > 40% |
